We go through 2 compounds from patent publication EP0740650B1, “CODRUGS AS A METHOD OF CONTROLLED DRUG DELIVERY” (priority 1994, dated 1995).

Each structure is given as a SMILES string.

In data set [1] the test system is extraocular muscle (EOM) surgery in rabbits. In words: Scar reduction after extraocular muscle surgery with codrug implants (Example 5). In kind it is in vivo. On the procedure:
After the IRM was sewn back into its insertion site, four 2 mg codrug implants were inserted between sclera and muscle in the right eye, while the left was used as a control. Bioerodible codrug implants releasing 5FU and TRI over 6 weeks were prepared. Devices release equimolar amounds of 5FU and TRI. Animals were sacrificed at 1, 2 and 3 weeks and eyes eviscerated. Specimens were prepared and stained with H&E. The scar thickness and cellular infiltrate were determined quantitatively using a Bioscan image analysis program.

Data set [2] deals with posterior capsular opacification (PCO). Kind of data set: Posterior capsular opacification after cataract extraction and IOL implantation with codrug pellet (Example 7). Type of data set: in vivo, New Zealand White rabbits. Here is the method:
Codrug pellets were prepared that gave pseudo zero order release of 5FU and TRI in an equimolar ratio over 6 weeks. […] 1.5 mm pellets containing 1.5 mg of TRI and 0.5 mg 5FU were prepared and fixed to the haptics of IOLs using the bioerodible polybutyl cyanoacrylate. This polymer is soaked into the pellet forming a codrug/cyanoacrylate matrix as it dried (figure 3). 16 New Zealand White rabbits were used in this study, one eye (control) received a polymethyl methacrylate intraocular lens (IOL) (Chiron Intraoptics) while the other received an IOL with codrug. Eyes were examined regularly by slit lamp and PCO scored from 0 to 4+. Retinal function was determined by electroretinogram (ERG) before implantation and before sacrifice. Animals were sacrificed after 4, 8, 12 and 16 weeks; eyes were removed and fixed in formalin. Photographs of posterior capsule were projected onto a grid and the percentage of PCO calculated.

Data set [3] in a line: physchem. The settings on record: phosphate buffer. In kind it is physicochemical. Here is the method: (§1) A stock solution was prepared by dissolving 10 mg of 5FU/TRI in 10 ml acetonitrile. This was then added to a series of phosphate buffers at pH 3, 5, 6.4, 7.4 and 8.4 at 37°C to give final concentrations of 100 ug/ml. Care was taken to ensure that these solutions were indeed solutions and not suspensions. Samples were periodically removed and assayed by HPLC as described below. Enzymatic hydrolysis was determine in a similar way using pooled serum from 3 volunteers. The assay procedure used distinguished between TRI and 5FU/TRI. 5FU was assayed under different conditions. HPLC Assays: Samples of buffer containing codrug and steroids were assayed by HPLC using a fully automated Hitachi system with a C-18 reverse phase column (25 cm × 4 mm x 5 µm) and uv detection. The mobile phase was 40% acetonitrile buffered to 4.0 with 0.02% sodium acetate. The flow rate was 1.0 ml/min and detection was at 238 nm. Under these conditions the retention time of the codrug 5FU/TRI was 17 minutes while triamcinolone acetonide eluted at 9 minutes. Quantitation limits were 0.3 and 0.5 ug/ml, respectively. […] For 5FU an Applied Biosystems HPLC system was used with a C-18 column reverse phase column (25 cm x 4 mm x 5 µm) and 0.02% sodium acetate buffer mobile phase (Ph 4.0). The flow rate was 1.0 ml/min and detection was by uv at 266 nm. Under these condition the retention time was 6.5 minutes and the detection limit 0.2 ug/ml.

A short description of a further data set: in vitro. In kind it is in vitro ADME. The note with it: human, serum, t½. On the procedure:
as §1, with “Under these condition the retention time was 6.5 minutes and the detection limit 0.2 ug/ml.” left out
To quantitate 5FU it was necessary to remove acetonitrile before analysis. […]

Data set [4] can be described thus: physchem. The note with it: buffer.
For data set [5], the system named is proliferative vitreoretinopathy (PVR). In words: Intravitreal pellet after vitrectomy, proliferative vitreoretinopathy. In kind it is in vivo. The note with it: pellet implanted intravitreally after vitrectomy; animal studies proceeding.
Data set [6] is described as follows: In vitro release from 2 mg codrug pellets in phosphate buffer (Example 3). In kind it is physicochemical. Here is the method:
Two mg pellets of the codrug 5FU/TRI were prepared in a 1.5 mm pellet press using a modified Parr Instrument Press. Pellets were then immersed in 5 ml phosphate buffer (Ph 7.4, 37 °C) and 300 µl samples removed each day for 6 days; there immediately replaced was replaced 300 µl of buffer. Samples were assayed by HPLC for 5FU/TRI, triamcinolone acetonide and 5FU. After 6 days buffer was completely replaced, to maintain sink conditions, and sampling continued.

A short description of data set [7]: Intravitreal codrug implants: pharmacokinetics and toxicity (Example 8). The note with it: intravitreal implant. Type of data set: in vivo, New Zealand White rabbits. Here is the method:
(§2) Bioerodible codrug implants were prepared 1.5 mm in diameter and attached to 6-0 nylon suture. Implants were immersed in 5 ml of phosphate buffer (pH 7.4) and samples periodically removed for HPLC assay to determine the release of both 5FU and TRI. Similar implants were then inserted into the vitreous of 14 New Zealand White rabbits (figure 4). Toxicity was assess by electroretinogram and slit lamp examination in all animals. Histopathologic examination was performed on four animals. Ten animals were used for pharmacokinetics; two animals were sacrificed 1, 2, 3, 4 and 5 weeks after implantation. Eyes were enucleated, devices removed and both vitreous and aqueous obtained. All samples were assayed by HPLC. Five animals received actual devices in one eye and placebo implants in contralateral eyes. These were sacrificed after 3 and 6 weeks for histopathologic examination.

The conditions of data set [8]: immersed in pH 7.4 buffer.
Data set [9] can be described thus: In vitro release from 1.5 mm codrug implants in phosphate buffer (Example 8). In kind it is physicochemical. The note with it: 1.5 mm implant, phosphate buffer pH 7.4. Here is the method:
as §2

Data set [10] can be described thus: Subconjunctival codrug devices: release from explanted devices, toxicity (Example 6). Type of data set: in vivo, rabbits. The settings on record: rabbit. Here is the method:
Codrug devices were prepared as flat discs 2.5 mm in diameter weighing 5 mg. Each device contained approximately 3.7 mg of TRI and 1.3 mg of 5FU and were composed of over 97% active substance. Devices were implanted subconjunctivally in each eye of ten rabbits (figure 2). Toxicity and inflammation were determined by weekly slit lamp examinations and electroretinograms (ERGs). Animals were sacrificed after 3, 7, 10 and 14 days and eyes eviscerated. After freezing at -70°C devices were removed for determination of residual drugs and the complete vitreous and aqueous dissected from the ice ball to determine the concentration of SFU and TRI. Two animals were used for histology and were sacrificed 6 weeks after implantation.

Data set [11] in a line: Vitreous concentrations after intravitreal implantation of codrug pellets (Example 4). Type of data set: in vivo, New Zealand white rabbits. Here is the method:
Two mg pellets of the codrug 5FU/TRI were prepared using a 1.5 mm press. These pellets were then fixed onto 6-0 nylon suture using intraocular lens grade silicone. silicone covered the base of the pellets providing a platform for suture attachment. Alternatively a solution of 2% or 5% polylactic acid was used. Pellets attached by both methods were implanted into the vitreous of 8 New Zealand white rabbits through a small incision through the sclera. For each type of device, two animals were killed after 1, 2, 3, and 4 weeks and the vitreous and aqueous obtained from the frozen sphere. Before death animals were examined with a slit lamp. […] Pellets were then implanted into the vitreous of 8 New Zealand White rabbits in a similar manner to that described in 3b except that sclerotomy sites were smaller in this case (2.5 mm). […] HPLC analysis was then performed on tissue samples and explanted devices to determine the concentrations of 5FU, triamcinolone acetonide and intact 5FU/TRI.

Data set [12] in a line: Stability of acetazolamide sulfocarbamate derivative in buffer solution. Type of data set: physicochemical.

As for `CC1(C)O[C@@H]2C[C@H]3[C@@H]4CCC5=CC(=O)C=C[C@]5(C)[C@@]4(F)[C@@H](O)C[C@]3(C)[C@]2(C(=O)COC(=O)OCn2cc(F)c(=O)[nH]c2=O)O1` [5FU/TRI], in [1] (40 µm^2 area, control > 300), the “number of inflammatory cells in a defined area of tissue” value is listed as less than 35. Besides, the scar thickness in [1] (drug treated eyes (controls 35 µm)) is given as 7 µm. In addition, the “decrease in scar thickness compared to controls” value in data set [1] (four 2 mg implants between sclera and muscle, rabbit) turned out to be 80%. Further, the “tolerability (ERG and histopathologic data)” value in data set [2] (codrug pellet on IOL haptic, rabbit capsular bag) is “well tolerated with no indication of a toxic or inflammatory response”. In addition, in data set [2] (p< 0.001), the “PCO by slit lamp examination, study versus control eyes” value is listed as “statistically significant decrease in PCO”. In addition, in data set [2] (p< 0.03 by 8 weeks), the “PCO assessed using a grid” value is reported as “arrest of opacification”. Moreover, the half-life was 204 h in “physchem [3]” (pH 3); 12.7 h in the data set “physchem [3]” (pH 5); 1.3 h in “physchem [3]” (pH 6.4); 0.235 h in “physchem [3]” (pH 7.4); 0.163 h in “physchem [3]” (pH 8.4); less than 10 min in the data set “in vitro” (half-life). The half-life in the data set “in vitro” was 8.8 min; in the data set “physchem [4]” (pH 3), more than 48 h; in the data set “physchem [4]” (pH 7.4), less than 0.05 h. Also, the “occurrence of PVR” value in [5] was “reduce the occurrence of PVR”. Moreover, the “fraction of triamcinolone acetonide and 5FU released while rates were maintained” value in data set [6] (2 mg pellet, phosphate buffer pH 7.4) is reported as “over 60%”. Moreover, the “Release of 5FU” value in [6] (2 mg pellet, phosphate buffer pH 7.4, 37 °C) stood at 0.4 ± 0.06 µg/h. The “intact codrug in the receptor medium” value in [6] (2 mg pellet, phosphate buffer pH 7.4, 37 °C, HPLC detection limit 0.5 ug/ml) is on record as “No intact codrug was detected”. For the same compound, the “mean release rate of triamcinolone acetonide” value in [6] (2 mg pellet, phosphate buffer pH 7.4, 37 °C, pseudo zero order) was determined as 1.4 ± 0.3 µg/h. Moreover, the “mean ratio of 5FU to triamcinolone acetonide concentration (ug/ml) in the receptor solution” value in data set [6] (all time points (equimolar release)) is 3.40 +/- 0.15. For the same compound, in data set [7] (rabbit), the “Levels of TRI and 5FU in the aqueous” value was “too low to be detected”. Further, the “tolerability in rabbit eyes” value in [7] (ERG, slit lamp, histopathology) is on record as “well tolerated in rabbit eyes with no indication of toxicity or inflammation”. For the same compound, in data set [8], the “release of TRI and 5FU from compressed pellet” value is “slowly releases both TRI and 5FU over an extended period of time (months)”. In [9], the “release of 5FU in buffer” value was determined as 0.3 µg/h. For the same compound, the “release of TRI in buffer” value in data set [9] came out at 1.4 µg/h. Further, the ERGs result in data set [10] (in vivo) is on record as “normal”. Further, in data set [10] (in vivo), the “release rate of 5FU and TRI from explanted devices (pseudo zero order)” value is listed as 9 +/-1 % per day. The “toxicity or inflammation around the implantation site” value in data set [10] (subconjunctival devices, slit lamp) was “no evidence of toxicity or inflammation”. Besides, the “intact codrug in the vitreous” value in data set [11] (2 mg pellets implanted in rabbit vitreous) is “No intact codrug was detected”. Also, the “intravitreal levels of triamcinolone” value in data set [11] (rabbit vitreous, week 5) was “below the detection limit of the HPLC”.

In the case of `CC(=O)Nc1nnc(S(=O)(=O)NC(=O)O[C@@H]2C[C@H](C)CC[C@H]2C(C)C)s1` [product 35], the “stability in buffer solution” value in data set [12] was “appears to stable in buffer solution”.
